This note sets out measurements from patent US8232414B2, “Polymorphic form of rotigotine and process for production” (UCB Pharma GmbH, priority 2007, dated 2012).

A short description of series [1]: Solubility in EtOH at room temperature. It is filed as physicochemical.
Series [2] is described as follows: Thermodynamic stability from DSC (melting point, enthalpy of fusion; Burger-Ramberger rules). Format: physicochemical. The conditions noted are these: heating rate 10° C./min, 30° C. to 140° C., Burger-Ramberger rules applied. The source says: Polymorph form (II) of rotigotine can be further characterized and distinguished from form (I) by differential scanning calorimetry (DSC). A DSC thermogram of form (II) is provided in FIG. 5, and was obtained using DSC techniques known to those of skill in the art. One of skill in the art would readily be able to determine the conditions necessary to obtain a DSC thermogram of form (II). A variety of differential scanning calorimeters are available to those of skill in the art and include the Differential Scanning Calorimeter of Mettler Toledo (DSC822e) using temperatures of about 25° C. to about 250° C., in particular about 30° C. to about 140° C. and temperature increases at various rates including 1° C./min, 10° C./min, 20° C./min, among other instruments and conditions. One skilled in the art would recognize that the peak positions in the DSC thermogram can vary depending upon kinetic factors such as, for example, heating rate and particle size. Thermal behavior investigations of rotigotine of polymorphic form (I) (batch 1608726) and of polymorphic form (II) (batch 7769396) were performed on a Mettler Toledo DSC system and on a TA instrument (Q-1000). The analyses were carried out with a heating rate of 10° C./min in pierced aluminum crucibles in a temperature range from 30° C. to 140° C.

Take `CCCN(CCc1cccs1)[C@H]1CCc2c(O)cccc2C1` [polymorphic form (I), (−)-5,6,7,8-tetrahydro-6-[propyl-[2-(2-thienyl)ethyl]amino]-1-naphthalenol, reference compound]: in series [1], the “solubility in EtOH” value is reported as “about 500 mg/ml”.
Take `CCCN(CCc1cccs1)[C@H]1CCc2c(O)cccc2C1` [polymorphic form (II), (−)-5,6,7,8-tetrahydro-6-[propyl-[2-(2-thienyl)ethyl]amino]-1-naphthalenol]: the “thermodynamic stability relative to form (I)” value in series [2] is recorded as “thermodynamically more stable than polymorphic form (I) at all considered temperatures”; in series [2] (listed as form (II)) it was “thermodynamically more stable than form (I) at any temperature considered”. Further, in series [1], the “solubility in EtOH” value is 60 to 100 mg/mL. The “solubility in EtOH relative to polymorphic form (I)” value in series [1] (form (II) versus form (I)) was “at least five times lower”.
